{
  "source": "patent US20240043473A1",
  "about": "“NOOTROPIC PEPTIDES FOR TREATING LYSOSOMAL STORAGE DISEASES” (Phoenix Nest Inc., priority 2021, published 2024)",
  "key": {"[1]": {"system": "Hgsnat^P304L MPS IIIC mice", "assay": "Y-Maze test", "assay_type": "in vivo, mouse", "conditions": "chronic daily intranasal 50 μg/kg BW from 3 weeks", "method": "The spontaneous alternation behavior, spatial working memory and exploratory activity of mice were evaluated using a white Y-maze as follows. The maze consisted of three identical white Plexiglas arms (40×10×20 cm, 120° apart) under dim lighting conditions. Each mouse was placed at the end of one arm, facing the center, and allowed to explore the maze for 8 min. All experiments were performed at the same time of the day and by the same investigator to avoid circadian and handling bias. Sessions were video-recorded and arm entries were scored by a trained observer, unaware of the mouse genotype or treatment. Successful alternation was defined as consecutive entries into a new arm before returning to the two previously visited arms.\nAlternation was calculated as: [number of alternations/total number of arm entries−2]×100.\n(§1) Starting from 3 weeks of age, WT C57B16 and homozygous Hgsnat^P304L male and female mice were randomly divided in treatment and control groups (6-13 mice/sex/genotype/treatment; see Table I). The control group was daily administered with saline (5 μL to each nostril), while for the treatment group, saline was supplemented with 125 µg of AVP6/mL, which would result in a dose of approximately 50 μg/kg BW/day. […] When such signs were detected, the mice were studied by ERG and sacrificed within 1-2 days. […]"}, "[2]": {"system": "BDNF", "assay": "Mature BDNF levels in dissected hippocampi by Western blot", "assay_type": "in vivo, mouse", "method": "Method: AVP6 was administered intranasally at 50 μg/kg (5 μl/nostril) for 10 consecutive days. After sacrifice, changes in the levels of BDNF, a protein involved in long-term synaptic potentiation and memory consolidation, in the dissected hippocampi of mice were analyzed by Western blots.\nThe cerebral cortical tissues were homogenized in five volumes of RIPA lysis buffer (50 mM Tris-HCl pH 7.4, 150 mM NaCl, 1% NP-40, 0.25% sodium deoxycholate, 0.1% SDS, 2 mM EDTA, 1 mM PMSF), containing protease and […] inhibitor cocktails (Sigma, cat#4693132001 and 4906837001), using a Dounce homogenizer. The homogenates were kept on ice for 30 min and centrifuged at 13,000 g at 4° C. for 25 min. The supernatant was centrifuged again at 13,000 g for 15 min, the protein concentration in resulting lysates was measured, and 20 μg of protein from each sample was separated by SDS-PAGE on 4-20% precast polyacrylamide gel (Bio-Rad, 4561096). Western blot analyses were performed according to standard protocols using Anti-BDNF and α-tubulin (1:2000, mouse, DSHB) antibodies. Equal protein loading was confirmed by Ponceau S staining and normalized for tubulin immunoreactive band. Detected bands were quantified using ImageJ 1.50i software (National Institutes of Health, Bethesda, MD, USA)."}, "[3]": {"system": "MIP1α", "assay": "Expression of inflammatory cytokine in brain (real-time qPCR)", "assay_type": "in vivo, mouse", "conditions": "chronic daily 50 μg/kg BW; Hgsnat^P304L mice at 5 months; vs saline", "method": "RNA was isolated from snap-frozen brain, kidney and liver tissues using the TRIzol reagent (Invitrogen) and reverse-transcribed using the iScript™ Reverse Transcription Supermix (Bio RAD #1708840) according to the manufacturer's protocol, qPCR was performed using a LightCycler® 96 Instrument (Roche) and SsoFast™ EvaGreen® Supermix with Low ROX (Bio RAD #1725211) according to the manufacturer's protocol. RLP32 mRNA was used as a reference control.\nas §1, with “BW/day. The peptide formulation was prepared once, aliquoted and kept frozen at −80° C. until use. At 4 months, all mice were studied by EPM, OF, YM and NOR behavioral tests. Administration of the drug or saline was continued through the days on which the assays were conducted. Then approximately at 5 months 4-5 mice in each group were sacrificed.” for “BW/day.”"}, "[4]": {"system": "β-hexosaminidase", "assay": "Total β-hexosaminidase activity in brain homogenates", "assay_type": "in vivo, mouse", "conditions": "chronic daily 50 μg/kg BW, vs saline", "method": "The activity of β-hexosaminidase was measured by combining 2.5 μl of 10× diluted homogenate ([…] of protein) with 15 μl of 0.1 M sodium acetate buffer (pH 4.2), and 12.5 μl of 3 mM 4-methylumbelliferyl N-acetyl-β-D-glucosaminide (Sigma-Aldrich) followed by incubation for 30 min at 37° C. The reaction was stopped 0.4 M glycine buffer (pH 10.4) and fluorescence was measured as above.\nStarting from 3 weeks of age, WT C57B16 and homozygous Hgsnat^P304L male and female mice were randomly divided in treatment and control groups (6-13 mice/sex/genotype/treatment; see Table I). The control group was daily administered with saline (5 μL to each nostril), while for the treatment group, saline was supplemented with 125 µg of AVP6/mL, which would result in a dose of approximately 50 μg/kg BW/day. The peptide formulation was prepared once, aliquoted and kept frozen at −80° C. until use. At 4 months, all mice were studied by EPM, OF, YM and NOR behavioral tests. Administration of the drug or saline was continued through the days on which the assays were conducted. Then approximately at 5 months 4-5 mice in each group were sacrificed. Their blood plasma was collected, and their tissues were either snap-frozen or fixed and cryopreserved to analyze CNS pathology as described above. […] When such signs were detected, the mice were studied by ERG and sacrificed within 1-2 days. […]"}, "[5]": {"assay": "Effect on memory and learning after intranasal administration (earlier work)", "assay_type": "in vivo", "conditions": "50 μg/kg BW intranasal; mice and rats"}, "[6]": {"conditions": "mouse, in vivo", "experimental": "WT C57B16 4-month-old male mouse was dosed intranasally with 10 μl of 50 mM AVP6 in saline (5 μl/nostril). One hour after dosing, the mouse was anesthetized with sodium pentobarbital, and 500 μl of blood collected by cardiac puncture. Mouse was then sacrificed by cranial dislodgement and its brain and visceral organs extracted. Tissues and blood plasma were homogenized in acetonitrile (1:4, tissue/solvent ratio). The extracts were spiked with heavy isotope-labelled (Phe U-^13C9; U-^15N) AVP6 peptide as an internal standard, and analyzed by targeted LC-MS/MS, using parallel reaction monitoring on Orbitrap Exploris 480 instrument.\nPeptide pharmaco-kinetics was determined by evaluation of AVP6 levels in CNS, blood and peripheral tissues at different time points (1-48 h) after intranasal delivery in the WT mice. The entire mouse brain was cut in four sections, rostral to caudal and assessed for biodistribution of AVP6 by targeted LC-MS/MS using parallel reaction monitoring. For quantification, samples were spiked with isotopically labeled (Phe U-^13C9; U-^15N) AVP6 peptide as an internal standard. Peptide levels were also measured in peripheral (liver, kidney, spleen) tissues and in blood to provide insights into peptide biodistribution and degradation rates."}, "[7]": {"system": "Hgsnat-Geo and Hgsnat^P304L MPS IIIC mice", "assay": "Novel Object Recognition test", "assay_type": "in vivo, mouse", "conditions": "single dose 17 hours before the test"}},
  "note": "Entries after “also recorded” stand apart in the source; their conditions may differ. No end group written: not given here.",
  "data": [
    {"substance": "AVP6: N-terminally acetylated Semax, a nootropic peptide having the amino acid sequence of MEHFPGP (SEQ ID NO:1) (Ac-MEHFPGP)", "values": [
      {"measurement": "spatial memory (alternation between arms), Y-Maze", "setting": "[1]; Hgsnat^P304L mice at 4 months", "result": "a significant difference between saline-treated and peptide-treated mice was observed only, when we pooled the data for both sexes together; also recorded: rescues deficits in spatial and short-term memory; also recorded: show the rescue of all above deficits"},
      {"measurement": "spatial memory (percent of alternation between arms), Y-Maze", "setting": "[1]; Hgsnat^P304L mice at 6 months", "result": "demonstrated alternation similar to that of the WT mice; also recorded: partially rescues deficits in spatial and short-term memory; also recorded: show rescue of all above deficits"},
      {"measurement": "mature BDNF levels", "setting": "[2]; acute (24 h) intranasal administration, MPSIIIC mice", "result": "significantly increased"},
      {"measurement": "mature BDNF levels in hippocampus", "setting": "[2]; intranasal 50 μg/kg daily for 10 days, 4-month-old Hgsnat-Geo mice", "result": "significantly increased; also recorded: increases BDNF levels; also recorded: partially restored levels; also recorded: partially rescued"},
      {"measurement": "expression levels of inflammatory cytokine MIP1α in the brain", "setting": "[3]", "result": "reduced expression levels"},
      {"measurement": "total β-hexosaminidase activity in total brain homogenates", "setting": "[4]; Hgsnat^P304L mice at 5 months", "result": "remained similar"},
      {"measurement": "total β-hexosaminidase activity in brain homogenates", "setting": "[4]; Hgsnat^P304L mice at terminal timepoint", "result": "trend for reduction"},
      {"measurement": "time to maximal effect on memory and learning after intranasal administration", "setting": "[5]", "result": "≤ 24", "unit": "h"},
      {"measurement": "time the peptide level in the brain remained above the estimated acting concentration", "setting": "[6]", "result": 17, "unit": "h"},
      {"measurement": "behaviour in Novel Object Recognition test after single dose", "setting": "[7]", "result": "did not improve behaviour"}
    ]}
  ]
}
